Experiments:
SF-295 = assay: NCI DTP 60 cell line screen, SRB
KM12 = assay: cells; details: Homo sapiens, KM12, 48 h
OVCAR-3 = assay: NCI DTP 60 cell line screen, SRB
MOLT-4 = assay: cells; details: Homo sapiens, MOLT-4, 48 h
CNS Cancer subpanel = assay: cells
Procedure: (§1) At the first stage of biological activity study, the antitumor activity screening of the selected compounds 2b, 2c, 2f, 2h, and 2j was performed according to the NCI DTP (USA) standard protocol at the concentrations ranging from 10^−4 to 10^−8 M toward 60 tumor cell lines. The percentage of growth was evaluated spectrophotometrically versus controls not treated with test agents after 48 h exposure and using SRB protein assay to estimate cell viability or growth. Dose–response parameters were calculated for each cell line: GI50—molar concentration of the compound that inhibits 50% net cell growth; TGI—molar concentration of the compound leading to the total inhibition; and LC50—molar concentration of the compound leading to 50% net cell death. Furthermore, mean graph midpoints (MG_MID) were calculated for each of the parameters, giving an average activity parameter over all cell lines for the tested compound. For the MG_MID calculation, insensitive cell lines were included with the highest concentration tested.
(§2) The selectivity index (SI) obtained by dividing the full panel MG-MID (mM) of the tested compound by their individual subpanel MG-MID (mM) was considered as a measure of selectivity of anticancer activity (Table 3).
(§3) Primary anticancer assay was performed on a panel of approximately sixty human tumor cell lines derived from nine neoplastic diseases, in accordance with the protocol of the Drug Evaluation Branch, National Cancer Institute, Bethesda. Tested compounds were added to the culture at a single concentration (10^−5 M) and the cultures were incubated for 48 h. End point determinations were made with a protein binding dye, sulforhodamine B (SRB). […] The percentage growth was evaluated spectrophotometrically versus controls not treated with test agents.
(§4) Dose–response parameters (GI50, TGI, LC50) were calculated for each compound. […] The drug concentration resulting in total growth inhibition (TGI) was calculated from Ti = Tz. The LC50 (concentration of drug resulting in a 50% reduction in the measured protein at the end of the drug treatment as compared to that at the beginning) indicating a net loss of cells following treatment was calculated from [(Ti − Tz)/Tz] × 100 = −50 (2). Values were calculated for each of these parameters if the level of activity was reached; however, if the effect was not reached or was excessive, the value for that parameter was expressed as more or less than the maximum or minimum concentration tested.

Prostate Cancer subpanel = assay: cells
Procedure: as §1, §2, §3, §4

Colon Cancer subpanel = assay: cells
Procedure: as §1, §2, §3, §4

Leukemia subpanel = assay: cells
Procedure: as §1, §2, §3, §4

[1] = system: Non-Small Cell Lung Cancer subpanel; assay: cells
Procedure: as §1, §2, §3, §4

Breast Cancer subpanel = assay: cells
Procedure: as §1, §2, §3, §4

Ovarian Cancer subpanel = assay: cells
Procedure: as §1, §2, §3, §4

Melanoma subpanel = assay: cells
Procedure: as §1, §2, §3, §4

Renal Cancer subpanel = assay: cells
Procedure: as §1, §2, §3, §4

DU-145 = assay: cells; details: Homo sapiens, DU-145, 48 h
EKVX = assay: cells; details: Homo sapiens, 48 h
SK-OV-3 = assay: NCI DTP 60 cell line screen, SRB
Colo 205 = assay: NCI DTP 60 cell line screen, SRB
[2] = Homo sapiens, read-out: MG_MID, GI50
[3] = Homo sapiens, read-out: MG_MID, LC50
[4] = full panel MG_MID / CNS Cancer subpanel MG_MID
[5] = full panel MG_MID / Prostate Cancer subpanel MG_MID
[6] = full panel MG_MID / Colon Cancer subpanel MG_MID
[7] = full panel MG_MID / Leukemia subpanel MG_MID
[8] = full panel MG_MID / Non-Small Cell Lung Cancer subpanel MG_MID
[9] = full panel MG_MID / Breast Cancer subpanel MG_MID
[10] = full panel MG_MID / Ovarian Cancer subpanel MG_MID
[11] = full panel MG_MID / Melanoma subpanel MG_MID
[12] = full panel MG_MID / Renal Cancer subpanel MG_MID

O=C1/C(=C/C(Cl)=C/c2ccc([N+](=O)[O-])cc2)SC(=S)N1c1ccc(O)cc1 [Compound 2f, 5-[(Z,2Z)-2-Chloro-3-(4-nitrophenyl)-2-propenylidene]-3-(4-hydroxyphenyl)-2-thioxo-4-thiazolidinone]
GI50 (SF-295; Homo sapiens, SF-295, 48 h): 2.26 µM | CC50 (SF-295; Homo sapiens, SF-295, 48 h, read-out: LC50): > 100 µM | TGI (SF-295; SF-295 (CNS Cancer), 48 h, SRB): 13.8 µM | GI50 (KM12): 2.85 µM | CC50 (KM12; read-out: LC50): > 100 µM | GI50 (OVCAR-3; Homo sapiens, OVCAR-3, 48 h): 0.977 µM | CC50 (OVCAR-3; Homo sapiens, OVCAR-3, 48 h, read-out: LC50): > 100 µM | TGI (OVCAR-3; OVCAR-3 (Ovarian Cancer), 48 h, SRB): 41.8 µM | GI50 (MOLT-4): 0.389 µM | CC50 (MOLT-4; read-out: LC50): > 100 µM | MG_MID, TGI (CNS Cancer subpanel; CNS Cancer panel mean): 30.6 µM | GI50 (CNS Cancer subpanel; [2]): 6.72 µM | CC50 (CNS Cancer subpanel; [3]): 77.4 µM | SI (selectivity index), GI50 (CNS Cancer subpanel; [4]): 0.42 | SI (selectivity index), LC50 (CNS Cancer subpanel; [4]): 1.04 | SI (selectivity index), TGI (CNS Cancer subpanel; [4]): 1.05 | GI50 (Prostate Cancer subpanel; [2]): 1.48 µM | CC50 (Prostate Cancer subpanel; [3]): 75.1 µM | SI (selectivity index), GI50 (Prostate Cancer subpanel; [5]): 1.89 | SI (selectivity index), LC50 (Prostate Cancer subpanel; [5]): 1.08 | SI (selectivity index), TGI (Prostate Cancer subpanel; [5]): 0.71 | MG_MID, TGI (Colon Cancer subpanel; Colon Cancer panel mean): 67.4 µM | GI50 (Colon Cancer subpanel; [2]): 1.84 µM | CC50 (Colon Cancer subpanel; [3]): 84.5 µM | SI (selectivity index), GI50 (Colon Cancer subpanel; [6]): 1.52 | SI (selectivity index), LC50 (Colon Cancer subpanel; [6]): 0.96 | SI (selectivity index), TGI (Colon Cancer subpanel; [6]): 0.48 | TI (Therapeutic Index) (Leukemia subpanel; GI50 (normal blood lymphocyte)/GI50 (Leukemia Panel)): >353.36 | GI50 (Leukemia subpanel; [2]): 0.283 µM | CC50 (Leukemia subpanel; [3]): > 100 µM | MG_MID, TGI (Leukemia subpanel; Leukemia panel mean): 41.0 µM | SI (selectivity index), GI50 (Leukemia subpanel; [7]): 9.89 | SI (selectivity index), LC50 (Leukemia subpanel; [7]): <0.81 | SI (selectivity index), TGI (Leukemia subpanel; [7]): 0.78 | GI50 [1, 2]: 2.93 µM | CC50 [1, 3]: 74 µM | MG_MID, TGI ([1]; Non-Small Cell Lung Cancer panel mean): 26.6 µM | SI (selectivity index), GI50 [1, 8]: 0.96 | SI (selectivity index), LC50 [1, 8]: 1.09 | SI (selectivity index), TGI [1, 8]: 1.21 | MG_MID, TGI (Breast Cancer subpanel; Breast Cancer panel mean): 11.6 µM | GI50 (Breast Cancer subpanel; [2]): 1.89 µM | CC50 (Breast Cancer subpanel; [3]): 98.7 µM | SI (selectivity index), GI50 (Breast Cancer subpanel; [9]): 1.48 | SI (selectivity index), LC50 (Breast Cancer subpanel; [9]): 0.82 | SI (selectivity index), TGI (Breast Cancer subpanel; [9]): 2.78 | GI50 (Ovarian Cancer subpanel; [2]): 3.32 µM | CC50 (Ovarian Cancer subpanel; [3]): > 100 µM | MG_MID, TGI (Ovarian Cancer subpanel; Ovarian Cancer panel mean): 42.5 µM | SI (selectivity index), GI50 (Ovarian Cancer subpanel; [10]): 0.84 | SI (selectivity index), LC50 (Ovarian Cancer subpanel; [10]): <0.81 | SI (selectivity index), TGI (Ovarian Cancer subpanel; [10]): 0.76 | GI50 (Melanoma subpanel; [2]): 2.63 µM | CC50 (Melanoma subpanel; [3]): 52.3 µM | MG_MID, TGI (Melanoma subpanel; Melanoma panel mean): 14.4 µM | SI (selectivity index), GI50 (Melanoma subpanel; [11]): 1.06 | SI (selectivity index), LC50 (Melanoma subpanel; [11]): 1.54 | SI (selectivity index), TGI (Melanoma subpanel; [11]): 2.23 | GI50 (Renal Cancer subpanel; [2]): 2.85 µM | CC50 (Renal Cancer subpanel; [3]): 69.1 µM | MG_MID, TGI (Renal Cancer subpanel; Renal Cancer panel mean): 24.1 µM | SI (selectivity index), GI50 (Renal Cancer subpanel; [12]): 0.98 | SI (selectivity index), LC50 (Renal Cancer subpanel; [12]): 1.17 | SI (selectivity index), TGI (Renal Cancer subpanel; [12]): 1.34 | GI50 (DU-145): 0.666 µM | CC50 (DU-145; read-out: LC50): 50.1 µM | GI50 (EKVX): 2.37 µM | CC50 (EKVX; read-out: LC50): > 100 µM | GI50 (SK-OV-3; Homo sapiens, SK-OV-3, 48 h): 10.2 µM | CC50 (SK-OV-3; Homo sapiens, SK-OV-3, 48 h, read-out: LC50): > 100 µM | TGI (SK-OV-3; SK-OV-3 (Ovarian Cancer), 48 h, SRB): 41.5 µM | TGI (Colo 205; Colo 205 (Colon Cancer), 48 h, SRB): > 100 µM | GI50 (Colo 205; Homo sapiens, COLO 205, 48 h): 4.34 µM | CC50 (Colo 205; Homo sapiens, COLO 205, 48 h, read-out: LC50): > 100 µM

Source: paper PMC8161026, “Synthesis and Anticancer Activity Evaluation of 5-[2-Chloro-3-(4-nitrophenyl)-2-propenylidene]-4-thiazolidinones” (Molecules, 2021)
